Each structure is given as a SMILES string.

The first assay addresses T1, hDGAT1 (Homo sapiens, UniProt O75907).
T1 construct: host or cells: Sf9 insect cells (baculovirus); microsomal preparation
T1 sequence (O75907 1-488): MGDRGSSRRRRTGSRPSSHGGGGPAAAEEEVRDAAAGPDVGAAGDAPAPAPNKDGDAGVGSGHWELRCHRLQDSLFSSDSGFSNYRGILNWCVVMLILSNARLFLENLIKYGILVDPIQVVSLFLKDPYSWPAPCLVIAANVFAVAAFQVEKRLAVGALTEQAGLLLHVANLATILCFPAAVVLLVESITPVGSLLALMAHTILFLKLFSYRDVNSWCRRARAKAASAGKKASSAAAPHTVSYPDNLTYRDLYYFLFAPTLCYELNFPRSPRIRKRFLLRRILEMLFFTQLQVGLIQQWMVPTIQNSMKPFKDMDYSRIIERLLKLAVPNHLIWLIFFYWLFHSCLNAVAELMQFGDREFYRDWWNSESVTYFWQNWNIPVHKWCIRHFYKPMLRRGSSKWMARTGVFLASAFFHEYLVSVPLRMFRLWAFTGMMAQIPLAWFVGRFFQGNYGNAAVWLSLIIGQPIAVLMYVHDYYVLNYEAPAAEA
As to the kind of experiment: In-vitro DGAT1 assay (hDGAT1 microsomes from Sf9 cells, 14C oleoyl CoA, triglyceride formation). In kind it is biochemical. To be noted: At 1 μM. The procedure, abridged: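 Human DGAT1 in baculovirus-infected Sf9 microsomes (2.5–10 μg), [14C]oleoyl-CoA with 409.5, 1228.5 or 1638 μM 1,2-dioleoyl-sn-glycerol, Tris-HCl pH 7.4 buffer with BSA. Compounds screened at 10, 5 and 1 μM in duplicate. Reaction 10 min at 37 °C; heptane-extracted [14C]triglyceride counted by scintillation.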
One may read the inhibition as the relative decrease from the control value, in per cent. As for `COC(=O)[C@H](NC(=O)c1cc(-c2ccc(NS(=O)(=O)c3ccccc3F)cc2)no1)C(C)C` [Example 315, (R)-methyl 2-(3-(4-(2-fluorophenylsulfonamido)phenyl)isoxazole-5-carboxamido)-3-methylbutanoate], the inhibition at 1 µM was in the range of 0 to 50%.
Same read-out and setting: to `COC(=O)[C@H](C(C)C)N(C)C(=O)c1cc(-c2ccc(NC(=O)Nc3cccc(C(F)(F)F)c3)cc2)no1` [Example 309, (S)-methyl 3-methyl-2-(N-methyl-3-(4-(3-(3-(trifluoromethyl)phenyl)ureido)phenyl)isoxazole-5-carboxamido)butanoate] belongs 50 to 75%.
The same measure, in the same setting: to `Cc1ccc(NC(=O)Nc2ccc(-c3cc(C(=O)NC(C(=O)O)C(C)C)on3)cc2)cc1Cl` (centres unmarked) [Example 248, 2-(3-(4-(3-(3-Chloro-4-methylphenyl)ureido)phenyl)isoxazole-5-carboxamido)-3-methylbutanoic acid] belongs 75 to 100%.
Still for that read-out and setting: to `COC(=O)[C@H](NC(=S)c1cc(-c2ccc(NC(=O)Nc3ccc(C)cc3)cc2)no1)C(C)C` [Example 223, (R)-Methyl 3-methyl-2-(3-(4-(3-p-tolylureido)phenyl)isoxazole-5-carbothioamido)butanoate] belongs 0 to 50%; to `CC(C)[C@@H](C(=O)O)N(C)C(=O)c1cc(-c2ccc(NC(=O)Nc3cccc(C(F)(F)F)c3)cc2)no1` [Example 310, (S)-3-methyl-2-(N-methyl-3-(4-(3-(3-(trifluoromethyl)phenyl)ureido)phenyl)isoxazole-5-carboxamido)butanoic acid], 50 to 75%.
For the compound `CC(C)[C@H](NC(=O)c1csc(-c2ccc(NC(=O)Nc3ccc(F)cc3F)cc2)n1)C(=O)O` [Example 359, (S)-2-(2-(4-(3-(2,4-difluorophenyl)ureido)phenyl)thiazole-4-carboxamido)-3-methylbutanoic acid], the inhibition at 1 µM lay within 0 to 50%.
Same read-out and setting: to `CC(C)[C@H](NC(=O)c1cc(-c2ccc(NC(=O)Nc3cc(F)cc(F)c3)cc2)no1)C(=O)O` [Example 167, (S)-2-(3-(4-(3-(3,5-difluorophenyl)ureido)phenyl)isoxazole-5-carboxamido)-3-methylbutanoic acid] belongs 75 to 100%.

Still in this assay, the particulars now being: At 5 μM.
As to `Cc1ccc(NC(=O)Nc2ccc(-c3cc(C(=O)NCCCC(=O)O)on3)cc2)cc1` [Example 256, 4-(3-(4-(3-p-Tolylureido)phenyl)isoxazole-5-carboxamido)butanoic acid], the inhibition at 5 µM lay within 50 to 75%.
The same measure, in the same setting: to `Cc1ccc(NC(=O)Nc2ccc(-c3cc(C(=O)NC(Cc4ccccc4)C(=O)O)on3)cc2)cc1` (centres unmarked) [Example 244, 3-Phenyl-2-(3-(4-(3-p-tolylureido)phenyl)isoxazole-5-carboxamido) propanoic acid] belongs 50 to 75%; to `Cc1ccc(NC(=O)Nc2ccc(-c3cc(C(=O)N[C@@H](Cc4ccc(O)cc4)C(=O)O)on3)cc2)cc1` [Example 273, (S)-3-(4-Hydroxyphenyl)-2-(3-(4-(3-p-tolylureido)phenyl)isoxazole-5-carboxamido)propanoic acid], 50 to 75%.
The same measure, in the same setting: to `COC(=O)[C@@H](NC(=O)c1nc(-c2ccc(NC(=O)Nc3ccccc3)cc2)no1)C(C)C` [Example 351, (S)-Methyl 3-methyl-2-(3-(4-(3-phenylureido)phenyl)-1,2,4-oxadiazole-5-carboxamido)butanoate] belongs 0 to 50%.
On the same count and under the same terms, to `COC(=O)[C@@H](NC(=O)c1nc(-c2ccc(NC(=S)Nc3ccccc3F)cc2)no1)C(C)C` [Example 355, (S)-methyl 2-(3-(4-(3-(2-fluorophenyl)thioureido)phenyl)-1,2,4-oxadiazole-5-carboxamido)-3-methylbutanoate] belongs 50 to 75%; to `COC(=O)[C@H](Cc1ccc(O)cc1)NC(=O)c1cc(-c2ccc(NC(=O)Nc3ccccc3F)cc2)no1` [Example 274, (S)-Methyl 2-(3-(4-(3-(2-fluorophenyl)ureido)phenyl)isoxazole-5-carboxamido)-3-(4-hydroxyphenyl)propanoate], 0 to 50%; to `CC(C)[C@H](NC(=O)c1cc(-c2ccc(NC(=O)Nc3ccccc3F)cc2F)no1)C(=O)O` [Example 144, (S)-2-(3-(2-Fluoro-4-(3-(2-fluorophenyl)ureido)phenyl)isoxazole-5-carboxamido)-3-methylbutanoic acid], 75 to 100%.
Regarding `COC(=O)[C@H](NC(=S)c1cc(-c2ccc(NC(=O)Nc3ccccc3F)cc2)no1)C(C)C` [Example 222, (R)-Methyl 2-(3-(4-(3-(2-fluorophenyl)ureido)phenyl)isoxazole-5-carbothioamido)-3-methylbutanoate], the inhibition at 5 µM was in the range of 50 to 75%.

Staying with this assay, now noted: At 10 μM.
On to `COC(=O)C(NC(=O)c1cc(-c2ccc(NC(=O)Nc3ccc(C)cc3)cc2)no1)C(C)C` (centres unmarked) [Example 125, Methyl 3-methyl-2-(3-(4-(3-p-tolylureido)phenyl)isoxazole-5-carboxamido)butanoate], for which the inhibition at 10 µM is 50 to 75%.
On the same count and under the same terms, to `COC[C@H](NC(=O)c1cc(-c2ccc(Nc3nc4ccc(F)cc4s3)cc2)no1)C(=O)O` [Example 13, (S)-2-({3-[4-(6-Fluoro-benzothiazol-2-ylamino)-phenyl]-isoxazole-5-carbonyl}-amino)-3-methoxy-propionic acid] belongs 75 to 100%; to `COC(=O)C(NC(=O)c1cc(-c2ccc(NC(=O)Nc3ccc(F)cc3)cc2C)no1)C(C)C` (centres unmarked) [Example 133, Methyl 2-(3-(4-(3-(4-fluorophenyl)ureido)-2-methylphenyl)isoxazole-5-carboxamido)-3-methylbutanoate], 50 to 75%; to `COC(=O)[C@@H](NC(=O)c1onc(-c2ccc(NC(=O)Nc3ccc(F)cc3)cc2)c1-c1ccccc1)C(C)C` [Example 92, (S)-2-[(3-{4-[3-(4-Fluoro-phenyl)-ureido]-phenyl}-4-phenyl-isoxazole-5-carbonyl)-amino]-3-methyl-butyric acid methyl ester], 0 to 50%.
On the same count and under the same terms, to `O=C(Nc1ccc(F)cc1)Nc1ccc(-c2cc(C(=O)NC3(C(=O)O)CCCC3)on2)cc1` [Example 120, 1-(3-(4-(3-(4-fluorophenyl)ureido)phenyl)isoxazole-5-carboxamido) cyclopentanecarboxylic acid] belongs 50 to 75%; to `COC[C@H](NC(=S)c1c(-c2ccc(Nc3nc4ccc(F)cc4s3)cc2)noc1-c1ccccc1)C(=O)OC` [Example 74, (S)-2-({3-[4-(6-Fluoro-benzothiazol-2-ylamino)-phenyl]-5-phenyl-isoxazole-4-carbothioyl}-amino)-3-methoxy-propionic acid methyl ester], 0 to 50%.
On the same count and under the same terms, to `CC(C)C(NC(=O)c1cc(-c2ccc(NC(=O)NCc3ccccc3)cc2)no1)C(=O)O` (centres unmarked) [Example 108, 2-(3-(4-(3-Benzylureido)phenyl)isoxazole-5-carboxamido)-3-methylbutanoic acid] belongs 50 to 75%.
`COC[C@H](NC(=NO)c1cc(-c2cccc(Nc3nc4ccc(F)cc4s3)c2)no1)C(=O)O` [Example 33, (S)-2-({3-[3-(6-Fluoro-benzothiazol-2-ylamino)-phenyl]-N-hydroxy-isoxazole-5-carboximidoyl}-amino)-3-methoxy-propionic acid] returned an inhibition at 10 µM of 0 to 50%.

For the origin of these results see patent publication US8835428B2, “Diacylglycerol acyltransferase inhibitors” (Piramal Enterprises Limited, priority 2008, dated 2014).
